Several values for one entry are separate records, joined by “and”; a condition that tells them apart may be missing. Equal entries are not always repeated.
Key:
[1] = Brain homogenate binding, rat; format: in vitro ADME; conditions: bound
Description: concentration), which was aliquoted in triplicate to the ‘bottom half’ of the prepared HTD plate wells. The HTD plate was sealed and incubated for 6 hours at 37 °C. Following incubation, each well (both top and bottom halves) were transferred (20 µL) to the corresponding wells of a 96-shallow-well (V-bottom) plate. The daughter plates were then matrix-matched (DPBS side wells received equal volume of plasma, and plasma side wells received equal volume of DPBS), and extraction solution (120 µL; acetonitrile containing 50 nM carbamazepine as IS) was added to all wells of both daughter plates to precipitate protein and extract test article. […]
The unbound fraction (f u) was calculated following the equation below, and mean values for each species were calculated from 3 replicates.
A similar approach was used to determine the degree of brain homogenate binding, which employed the same methodology and procedure with the following modifications: 1) a final compound concentration of 1 μM was used, 2) naïve rat brains were homogenized in DPBS (1:3 composition of brain: DPBS, w/w) using a Mini-Bead Beater™ machine in order to obtain brain homogenate, which was then treated in the same manner as the plasma samples in the previously described plasma protein binding assay. Fraction unbound for both plasma and brain samples was determined using Equation 4. […]

THIK-1 = THIK-1 (Homo sapiens, UniProt Q9HB14); assay: K2P family selectivity, THIK-1; format: cell-based
dopamine transporter DAT = target: T1, dopamine transporter DAT (Homo sapiens, UniProt Q01959); assay: Radioligand binding, dopamine transporter
T1 construct: purchased Eurofins

TRAAK = TRAAK (Homo sapiens, UniProt Q9NYG8); assay: K2P family selectivity, TRAAK; format: cell-based
DAT = DAT (Homo sapiens, UniProt Q01959); assay: Functional assay, DAT; format: biochemical
TASK-2 = TASK-2 (Homo sapiens, UniProt O95279); assay: K2P family selectivity, TASK-2; format: cell-based
TASK-1 = TASK-1 (Homo sapiens, UniProt O14649); assay: K2P family selectivity, TASK-1; format: cell-based
TASK-3 = TASK-3 (Homo sapiens, UniProt Q9NPC2); assay: K2P family selectivity, TASK-3; format: cell-based
MK-801 challenged rat = assay: MK-801 challenge novel object recognition (NOR), rat; format: in vivo; conditions: for Minimum effective dose (MED), MK-801 challenge NOR: PO, MK-801 0.2 mg/kg IP; for reversal of the MK-801 deficit in NOR: oral, 10 at 1, 3 mg/kg, 11 at 0.3, 1 mg/kg
adenosine A3 = target: T2, adenosine A3 (Homo sapiens, UniProt P0DMS8); assay: Radioligand binding, adenosine A3; conditions: for IC50: follow-up binding; for inhibition at 10 µM: radioligand binding displacement
T2 construct: purchased Eurofins
T2 sequence (P0DMS8 1-318): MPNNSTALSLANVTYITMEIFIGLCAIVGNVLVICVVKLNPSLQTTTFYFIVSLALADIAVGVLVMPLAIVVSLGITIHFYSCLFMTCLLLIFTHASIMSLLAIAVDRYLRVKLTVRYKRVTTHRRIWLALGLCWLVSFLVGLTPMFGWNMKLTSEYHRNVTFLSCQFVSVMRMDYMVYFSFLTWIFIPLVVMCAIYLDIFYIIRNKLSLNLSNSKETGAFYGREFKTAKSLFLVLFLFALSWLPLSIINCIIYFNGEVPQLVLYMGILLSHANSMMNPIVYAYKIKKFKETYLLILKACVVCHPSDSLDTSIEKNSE

TRESK = TRESK (Homo sapiens, UniProt Q7Z418); assay: K2P family selectivity, TRESK; format: cell-based
sodium channel site 2 = assay: Radioligand binding, sodium channel site 2
[2] = radioligand binding displacement, 10 μM

T1 sequence (Q01959 whole entry): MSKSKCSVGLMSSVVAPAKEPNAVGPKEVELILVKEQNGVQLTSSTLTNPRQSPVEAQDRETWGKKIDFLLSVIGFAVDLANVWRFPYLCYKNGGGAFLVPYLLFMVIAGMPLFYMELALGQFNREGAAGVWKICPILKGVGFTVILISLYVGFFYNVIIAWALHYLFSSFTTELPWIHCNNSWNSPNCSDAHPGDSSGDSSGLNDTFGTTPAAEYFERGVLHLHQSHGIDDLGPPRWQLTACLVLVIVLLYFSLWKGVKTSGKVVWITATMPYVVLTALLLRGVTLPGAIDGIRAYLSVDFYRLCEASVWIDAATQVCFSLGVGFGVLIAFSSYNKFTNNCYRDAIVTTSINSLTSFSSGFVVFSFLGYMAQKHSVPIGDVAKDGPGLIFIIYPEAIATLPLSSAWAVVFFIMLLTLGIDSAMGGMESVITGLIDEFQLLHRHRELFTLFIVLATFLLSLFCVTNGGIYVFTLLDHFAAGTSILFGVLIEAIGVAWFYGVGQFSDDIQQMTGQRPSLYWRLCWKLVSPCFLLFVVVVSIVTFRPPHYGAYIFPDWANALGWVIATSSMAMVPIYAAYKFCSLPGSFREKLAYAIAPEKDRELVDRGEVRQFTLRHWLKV
Sequence of TRESK (Q7Z418 whole entry, species assumed): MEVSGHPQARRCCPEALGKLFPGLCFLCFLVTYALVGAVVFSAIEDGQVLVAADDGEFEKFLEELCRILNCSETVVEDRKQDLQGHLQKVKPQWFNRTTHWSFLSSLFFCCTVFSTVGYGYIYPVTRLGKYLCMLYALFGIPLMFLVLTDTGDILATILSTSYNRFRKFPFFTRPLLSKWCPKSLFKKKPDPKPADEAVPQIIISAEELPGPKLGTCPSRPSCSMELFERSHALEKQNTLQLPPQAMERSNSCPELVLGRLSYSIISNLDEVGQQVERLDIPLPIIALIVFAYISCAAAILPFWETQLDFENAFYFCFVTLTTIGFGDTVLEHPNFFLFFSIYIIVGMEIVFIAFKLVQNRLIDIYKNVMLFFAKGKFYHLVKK
Sequence of THIK-1 (Q9HB14 whole entry, species assumed): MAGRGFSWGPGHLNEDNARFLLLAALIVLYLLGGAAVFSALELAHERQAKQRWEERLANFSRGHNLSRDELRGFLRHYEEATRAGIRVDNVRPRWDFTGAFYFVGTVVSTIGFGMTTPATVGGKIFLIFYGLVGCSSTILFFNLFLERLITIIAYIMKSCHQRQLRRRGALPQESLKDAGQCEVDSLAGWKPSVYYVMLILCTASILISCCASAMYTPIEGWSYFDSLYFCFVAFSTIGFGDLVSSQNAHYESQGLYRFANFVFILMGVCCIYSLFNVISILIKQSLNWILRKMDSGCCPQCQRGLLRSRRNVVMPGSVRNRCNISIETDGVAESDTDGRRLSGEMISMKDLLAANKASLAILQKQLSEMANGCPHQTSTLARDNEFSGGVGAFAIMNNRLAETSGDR
Sequence of TASK-3 (Q9NPC2 whole entry, species assumed): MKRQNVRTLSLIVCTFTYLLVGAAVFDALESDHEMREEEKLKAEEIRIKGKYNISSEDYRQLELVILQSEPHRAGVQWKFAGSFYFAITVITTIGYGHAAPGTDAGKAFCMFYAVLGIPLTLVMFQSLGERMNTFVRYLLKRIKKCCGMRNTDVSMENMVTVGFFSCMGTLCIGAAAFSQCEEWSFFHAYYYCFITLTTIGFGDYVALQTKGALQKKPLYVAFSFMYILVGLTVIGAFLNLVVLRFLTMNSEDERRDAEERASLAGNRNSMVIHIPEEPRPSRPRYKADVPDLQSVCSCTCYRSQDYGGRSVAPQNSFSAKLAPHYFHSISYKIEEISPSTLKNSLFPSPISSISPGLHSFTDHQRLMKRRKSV
Sequence of TASK-2 (O95279 whole entry, species assumed): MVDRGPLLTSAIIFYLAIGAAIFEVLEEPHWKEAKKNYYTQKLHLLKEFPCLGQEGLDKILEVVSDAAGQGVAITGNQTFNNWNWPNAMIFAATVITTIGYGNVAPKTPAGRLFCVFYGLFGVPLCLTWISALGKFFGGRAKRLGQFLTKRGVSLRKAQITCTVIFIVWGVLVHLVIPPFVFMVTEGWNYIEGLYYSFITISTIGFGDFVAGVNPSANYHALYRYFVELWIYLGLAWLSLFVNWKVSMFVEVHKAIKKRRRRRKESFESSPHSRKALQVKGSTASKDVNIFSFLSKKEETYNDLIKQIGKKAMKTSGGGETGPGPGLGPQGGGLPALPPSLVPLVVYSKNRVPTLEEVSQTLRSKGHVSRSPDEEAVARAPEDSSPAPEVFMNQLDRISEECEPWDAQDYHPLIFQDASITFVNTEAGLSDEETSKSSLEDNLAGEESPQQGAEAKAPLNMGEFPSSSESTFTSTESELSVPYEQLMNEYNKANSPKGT
Sequence of TRAAK (Q9NYG8 whole entry, species assumed): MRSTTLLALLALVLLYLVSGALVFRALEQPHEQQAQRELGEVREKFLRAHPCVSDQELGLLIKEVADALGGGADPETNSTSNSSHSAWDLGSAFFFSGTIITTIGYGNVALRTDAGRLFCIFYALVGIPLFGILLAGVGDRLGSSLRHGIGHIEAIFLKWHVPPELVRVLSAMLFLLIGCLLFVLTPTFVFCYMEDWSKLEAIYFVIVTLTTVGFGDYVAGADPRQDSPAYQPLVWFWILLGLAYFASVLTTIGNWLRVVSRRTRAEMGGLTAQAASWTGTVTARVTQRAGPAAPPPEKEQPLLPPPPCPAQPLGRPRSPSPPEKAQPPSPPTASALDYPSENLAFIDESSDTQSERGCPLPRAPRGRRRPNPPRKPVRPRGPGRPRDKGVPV
Sequence of TASK-1 (O14649 whole entry, species assumed): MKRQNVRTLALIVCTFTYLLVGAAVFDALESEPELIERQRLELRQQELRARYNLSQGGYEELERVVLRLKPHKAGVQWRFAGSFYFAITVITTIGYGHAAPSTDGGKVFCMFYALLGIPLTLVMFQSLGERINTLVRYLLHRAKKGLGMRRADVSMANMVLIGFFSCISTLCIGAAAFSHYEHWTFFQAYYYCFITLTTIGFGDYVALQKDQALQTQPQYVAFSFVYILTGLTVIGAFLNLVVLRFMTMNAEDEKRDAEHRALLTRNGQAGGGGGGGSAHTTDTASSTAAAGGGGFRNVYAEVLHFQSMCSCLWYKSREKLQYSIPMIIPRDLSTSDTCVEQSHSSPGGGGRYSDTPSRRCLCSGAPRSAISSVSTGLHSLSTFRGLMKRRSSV
Sequence of DAT (Q01959 whole entry, species assumed): as the sequence (Q01959 whole entry) above

Structure (SMILES)	BHB rat [1]	THIK-1 inhibition (THIK-1)	IC50 (dopamine transporter DAT; follow-up binding) [nM]	inhibition at 10 µM (dopamine transporter DAT; [2]) [%]	inhibition at 10 µM (TRAAK) [%]	IC50 (DAT) [nM]	TASK-2 inhibition (TASK-2)	TASK-1 inhibition (TASK-1)	inhibition at 10 µM (TASK-3) [%]	Minimum effective dose (MED), MK-801 challenge NOR (MK-801 challenged rat) [mg/kg]	reversal of the MK-801 deficit in NOR (MK-801 challenged rat)	IC50 (adenosine A3) [nM]	inhibition at 10 µM (adenosine A3) [%]	TRESK inhibition (TRESK)	IC50 (sodium channel site 2; follow-up binding) [nM]	sodium channel site 2 inhibition at 10 μM (sodium channel site 2; [2]) [%]
CC(=O)N1CCC(n2ncc(Cl)c2C(=O)Nc2ncc(C#Cc3ccccc3)cc2C)CC1 [Compound 10, 1-(1-Acetylpiperidin-4-yl)-4-chloro-N-(3-methyl-5-(phenylethynyl)pyridin-2-yl)-1H-pyrazole-5-carboxamide]	99.5% and 99.5, 99.5%	nothing significant	2860	78	84	1210	nothing significant	nothing significant	78	1	significantly reversed the MK-801 deficit	380	98	nothing significant	–	–
CC(=O)N1CC[C@@H](n2ncc(Cl)c2C(=O)Nc2ncc(C#Cc3ccc(F)cc3)cc2C)[C@H](F)C1 [Compound 11, 1-((3R,4R)-1-Acetyl-3-fluoropiperidin-4-yl)-4-chloro-N-(5-((4-fluorophenyl)ethynyl)-3-methylpyridin-2-yl)-1H-pyrazole-5-carboxamide]	99.4%	–	–	–	–	–	–	–	–	0.3	significantly reversed the MK-801 deficit	770	91	–	9130	56

— PMC12621189, “Optimization of Selective and CNS Penetrant Alkyne-Based TREK Inhibitors: The Discovery and Characterization of ONO-9517601 (VU6022856) and ONO-7927846 (VU6024391)” (Journal of Medicinal Chemistry, 2025)
